{"source": "patent US11185523B2", "about": "“Use of bipolar trans carotenoids with chemotherapy and radiotherapy for treatment of cancer” (DIFFUSION PHARMACEUTICALS LLC, priority 2016, dated 2021)", "key": {"[1]": {"test": "Change in partial pressure of oxygen, low vs high efficacious dose (FIG. 1)", "assay_type": "in vivo", "details": "FIG. 1 hyperoxic rat", "procedure": "FIG. 1 illustrates the change in partial pressure of oxygen of a hyperoxic rat resulting from administration of a low efficacious dose amount compared to a high efficacious dose amount of TSC.\nIt has been discovered that for a mammal, there are two concentrations of a bipolar trans carotenoid, such as TSC, that result in increased oxygen partial pressure—the “low” dose and the “high” dose—in a tumor. For humans, the low dose range is 0.15-0.35 mg/kg and the high dose range is 0.75 to 2.0 mg/kg. Both doses result in approximately the same maximum increase in oxygen partial pressure."}, "[2]": {"test": "Stability of TSC versus pH", "assay_type": "physicochemical", "details": "dependence on pH", "procedure": "Mannitol can be used to adjust osmolality and its concentration varies depending on the concentration of other ingredients. The glycine is held constant. […] The use of glycine is compatible with lyophilization. Alternatively, the TSC and cyclodextrin is formulated using a 50 mM bicarbonate or other buffers, in place of the glycine."}, "[3]": {"test_system": "Hemorrhagic Stroke", "test": "Pre-clinical efficacy study: Hemorrhagic Stroke", "assay_type": "in vivo", "details": "Rat", "source_text": "(§1) It has also been determined that several non-cancer disorders are beneficially treated utilizing an administration regimen of a bipolar trans carotenoid such as TSC, as described below."}, "[4]": {"test_system": "Memory Recall", "test": "Pre-clinical efficacy study: Memory Recall", "assay_type": "in vivo", "details": "Rat", "source_text": "as §1"}, "[5]": {"test_system": "Critical Limb Ischemia", "test": "Pre-clinical efficacy study: Critical Limb Ischemia", "assay_type": "in vivo", "details": "Mouse", "source_text": "as §1"}, "[6]": {"test_system": "Ischemic Stroke", "test": "Pre-clinical efficacy study: Ischemic Stroke", "assay_type": "in vivo", "source_text": "as §1"}, "[7]": {"test_system": "Hemorrhagic Shock", "test": "Pre-clinical efficacy study: Hemorrhagic Shock", "assay_type": "in vivo", "source_text": "as §1"}, "[8]": {"test_system": "DMBA breast tumors", "test": "DMBA breast tumor model, TSC before chemotherapy", "assay_type": "in vivo", "details": "for tumor growth, timing of TSC injection: Day 2, FIG. 5", "procedure": "Breast tumors were induced through injection of DMBA (dimethylbenzantracene) under the mammary tissue of female rats. The tumors usually grow in most rats and reach measurable conditions after 10 days.\nThe following studies used a method in which a 3-mL syringe is filled first with 1 ml of DMBA dissolved in sunflower seed oil (20 mg DMBA per mL of solution). Following that, 2 mL's of air are pulled into the syringe. The needle of the syringe is then inserted under the mammary tissue near a hind leg and the air in the syringe is carefully injected. The injection of the air forms a “pocket”, and then the 1 mL of DMBA solution is injected into that pocket.\nAfter the tumors have grown up (about 10 days), their volumes are estimated by measuring the diameter (d) and the length (L) of the football-shaped tumors formed. This is done using calipers after feeling the tumor with one's fingers. To estimate the volume of the tumor, you multiply the diameter squared times the length and divide by 2: Tumor volume (in mm3)={(d in mm)^22}×(L in mm)\nTSC or saline (controls) was injected in the tail vein of the rats at a volume of 0.1 mL and a dose of 0.25 mg/kg TSC about 1-2 hours before the chemotherapeutic agent was injected intraperitoneally (IP) in the rats.\nIn order to understand which dosages are efficacious when used with chemotherapy, a rat model of breast tumors was used. The model involves injecting the chemical dimethylbenzanthracene (DMBA) under the mammary gland of a female Sprague-Dawley rat. After a few days, tumors begin to grow and can be measured by feeling the football-shaped tumor under the skin and measured using calipers."}}, "note": "“Also recorded” adds a separate entry of the source.", "data": [{"molecule": "CC(/C=C/C=C(\\C)C(=O)[O-])=C\\C=C\\C=C(C)\\C=C\\C=C(/C)C(=O)[O-].[Na+].[Na+]", "note": "[TSC, trans sodium crocetinate]", "values": [{"measurement": "oxygen partial pressure, duration of maximum", "setting": "[1]", "result": "sustained maximum oxygen partial pressure"}, {"measurement": "stability", "setting": "[2]", "result": "more stable at higher pHs"}, {"measurement": "Best Dosage", "setting": "[3]", "result": "Low"}, {"measurement": "Best Dosage", "setting": "[4]", "result": "High"}, {"measurement": "Best Dosage", "setting": "[5]", "result": "High"}, {"measurement": "Best Dosage", "setting": "[6]; Rabbit", "result": "Low"}, {"measurement": "Best Dosage", "setting": "[6]; Rat", "result": "Low"}, {"measurement": "Best Dosage", "setting": "[7]; Pig", "result": "Low"}, {"measurement": "Best Dosage", "setting": "[7]; Rat, low dose (for rats) 0.1 mg/kg, high 0.25 mg/kg", "result": "Low"}, {"measurement": "effect on tumor volume with cisplatin", "setting": "[8]; high dose (for rats) 0.25 mg/kg TSC 2 hours before 1 mg/kg cisplatin IP on days 0, 4, 11, 18, FIG. 2", "result": "efficacious; also recorded: significant improvement in tumor volume over the control"}, {"measurement": "tumor growth, timing of TSC injection", "setting": "[8]; high dose TSC 2 hours before gemcitabine 7.5 mg/kg", "result": "best and best results"}, {"measurement": "pseudoprogression (increase in tumor volume on day 7)", "setting": "[8]; high dose TSC 2 hours prior to doxorubicin", "result": "Pseudoprogression was also seen"}, {"measurement": "tumor growth with doxorubicin", "setting": "[8]; high dose TSC 2 hours prior to doxorubicin, FIG. 7", "result": "marked reduction in tumor growth in comparison with the control group"}, {"measurement": "pseudoprogression (increase in tumor volume on day 7)", "setting": "[8]; high dose TSC 2 hours prior to temozolomide, FIG. 6", "result": "pseudoprogression was seen"}, {"measurement": "pseudoprogression", "setting": "[8]; high dose TSC 2 hrs. prior to paclitaxel", "result": "Pseudoprogression was also seen"}, {"measurement": "tumor growth with paclitaxel", "setting": "[8]; high dose TSC 2 hrs. prior to paclitaxel, Days 0, 4, 8, 14, FIG. 8", "result": "marked reduction in tumor growth in comparison with the control group"}, {"measurement": "tumor growth, timing of TSC injection", "setting": "[8]; high dose TSC concurrently, 1 hour before or 2 hours before gemcitabine 7.5 mg/kg", "result": "reduced tumor growth relative to control"}, {"measurement": "tumor growth with gemcitabine", "setting": "[8]; high dose of TSC 2 hours before 5 mg/kg gemcitabine IP on days 0, 3, FIG. 4", "result": "substantially less tumor growth than those in the control group"}, {"measurement": "effect on tumor volume with gemcitabine", "setting": "[8]; high dose of TSC 2 hours before 10 mg/kg gemcitabine IP on days 0, 3, day 3, FIG. 3", "result": "efficacious; also recorded: significant decrease in tumor volume"}]}]}
